From patent US11457631B2, “Antimicrobial compounds and methods of use” (AEQUOR, INC., priority 2016, dated 2022)

What was measured:
Format in all cases: cell-based, Staphylococcus aureus
S. aureus ATCC 25923 [1] = assay: Minimum Bactericidal Concentration (MBC), CLSI M26-A modified for 96 well plates; conditions: planktonic
Protocol: (§1) Antibacterial and antibiofilm assay were performed on human pathogens and industrial microorganisms associated with contamination: Staphylococcus aureus (ATCC 25923 and ATCC 12600), S. epidermidis (ATCC 12228 and ATCC 14990), Pseudomonas aeruginosa (ATCC 27853), E. coli (ATCC 25922), C. albicans ATCC 18804), oral flora bacteria Streptococcus mutans (ATCC 25175) and S. gordonii (ATCC 33399), and/or marine biofilm former Cobetia marina (ATCC 25374).
(§2) Antibacterial assays were performed on planktonic bacteria to determine the Minimum Inhibitory Concentrations (MICs) and Minimum Bactericidal Concentrations (MBCs) for the compounds. MICs are defined as the lowest concentration of an antimicrobial that will inhibit the visible growth of a microorganism after overnight incubation. The MICs were determined using the standard CLSI Method M07-A9 for Dilution Antimicrobial Susceptibility Tests for Bacteria That Grow Aerobically modified for 96 well plates. MBCs are the lowest concentration of antimicrobial that kill the organism. MBCs were determined using the standard CLSI Method M26-A for Determining Bactericidal Activity of Antimicrobial Agents modified for 96 well plates.
(§3) A selection of the compounds were used in the above assays against S. aureus (ATCC 25923).

S. aureus ATCC 25923 [2] = assay: Minimum Inhibitory Concentration (MIC), CLSI M07-A9 modified for 96 well plates, planktonic bacteria; conditions: overnight incubation
Protocol: as §1, §2, §3

S. aureus ATCC 25923 [3] = assay: Minimum Biofilm Eradicating Concentration (MBEC) assay, ASTM E2799-12; conditions: biofilm eradication
Protocol: Antibacterial and antibiofilm assay were performed on human pathogens and industrial microorganisms associated with contamination: Staphylococcus aureus (ATCC 25923 and ATCC 12600), S. epidermidis (ATCC 12228 and ATCC 14990), Pseudomonas aeruginosa (ATCC 27853), E. coli (ATCC 25922), C. albicans ATCC 18804), oral flora bacteria Streptococcus mutans (ATCC 25175) and S. gordonii (ATCC 33399), and/or marine biofilm former Cobetia marina (ATCC 25374). The MBIC assay is defined as the lowest concentration of the compound that will inhibit the biofilm. The ASTM […]-12 Standard Test Method for Testing Pseudomonas Biofilm using the Minimum Biofilm Eradicating Concentration (MBEC) assay was used to determine biofilm removal. The MBEC assay is defined as the lowest concentration of compound that will eradicate the biofilm. The qualitative MBEC is determined using a microplate reader at absorbance 630 nm and the quantitative MBEC is determined using log10 reduction. A selection of the compounds were used in the above assays against S. aureus (ATCC 25923).

S. aureus ATCC 25923 [4] = assay: Minimum Biofilm Inhibition Concentration (MBIC), 96-well microplate static biofilm assay
Protocol: as §1
Antibiofilm assays were performed to determine the prevention and removal of biofilm. The 96-well microplate assay was used to determine the Minimum Biofilm Inhibition Concentration (MBIC) (Merritt, et al. 2005. Growing and analyzing static biofilms. Curr Protoc Microbiol. Chapter 1, Unit 1.)
The MBIC assay is defined as the lowest concentration of the compound that will inhibit the biofilm. The ASTM E2799-12 Standard Test Method for Testing Pseudomonas Biofilm using the Minimum Biofilm Eradicating Concentration (MBEC) assay was used to determine biofilm removal. The MBEC assay is defined as the lowest concentration of compound that will eradicate the biofilm. The qualitative MBEC is determined using a microplate reader at absorbance 630 nm and the quantitative MBEC is determined using log10 reduction.
as §3

MIC (S. aureus ATCC 25923 [2]): 0.25 % w/v
Compound: CCCCNP(=O)(O)OC(C)=O [X is NH2; A is (CH2)3CH3, acetic (1-butyl phosphoramidic) anhydride]
MBC (S. aureus ATCC 25923 [1]): 0.25 % w/v
MBEC (S. aureus ATCC 25923 [3]): 0.25 % w/v
MBIC (S. aureus ATCC 25923 [4]): 0.25 % w/v
